{"source": "patent US20090081174A1", "about": "(priority 2005, published 2009)", "system": "Phytophthora infestans, strain resistant to phenylalanine", "conditions": "listed phosphite salt(s) alone at 750 ppm equivalent phosphorous acid, potato plants, scale 100 to 0", "data": [{"smiles": "O=[PH]([O-])[O-].[Cu+2]", "note": "[CuHPO3, copper (II) salt of phosphorous acid]", "values": [{"measurement": "Activity (y)", "value": 12}]}]}
